This note sets out measurements from the NIST ThermoML archive (doi:10.1021/je9006585).

Numbers after ± are expanded uncertainties.

The conditions of the data set: Crystal; visual observation.

For `C[n+]1ccn(CCCn2cc[n+](C)c2)c1.F[P-](F)(F)(F)(F)F.F[P-](F)(F)(F)(F)F`, the Normal melting temperature is 142.2 ± 1.5 °C.
